From ChEMBL document CHEMBL5149996, “Structure-Based Optimization and Discovery of M3258, a Specific Inhibitor of the Immunoproteasome Subunit LMP7 (β5i)” (J Med Chem, 2021) come the findings set out here.

Active and inactive are the calls of the source. The calls are words filed in the database; no cut-off is given here. Some results are limits rather than exact numbers.

The species named for one data set is Homo sapiens. In words: Selectivity ratio of IC50 for inhibition of 20S proteasome beta5 subunit in human A549 cells to IC50 for inhibition of 20S immunoproteasome beta-5i subunit in human PBMC. It counts as cell-based.
Data set [1] in a line: Kinetic solubility of the compound. It counts as physicochemical. Conditions: read-out: Kinetic_solubility.
Data set [2] in a line: Clearance in iv dosed mouse. It counts as ADME, organism-based. Conditions: in vivo.
Data set [3] deals with U-266. In words: In vivo inhibition of LMP7 activity in tumor lysates of H2d Rag2 mouse xenografted with human U266B1 cells at 0.3 mg/kg, po administered as single dose using (Ac-ANW)2R110 as substrate measured after 1 to 6 hrs by fluorescence intensity assay. Type of data set: functional, organism-based. As to conditions: Neoplasm, time 1-6 hrs.
Data set [4] relates to U-266. The data set can be described thus: In vivo inhibition of LMP7 activity in tumor lysates of H2d Rag2 mouse xenografted with human U266B1 cells at 0.3 mg/kg, po administered once daily using (Ac-ANW)2R110 as substrate measured at 1 to 6 hrs post-last drug dosage by fluorescence intensity assay. Conditions: Neoplasm, time 1-6 hrs. Type of data set: functional, organism-based.

The target in data set [5] is T1, Proteasome subunit beta type-6 (Homo sapiens, UniProt P28072).
T1 sequence (P28072 whole entry): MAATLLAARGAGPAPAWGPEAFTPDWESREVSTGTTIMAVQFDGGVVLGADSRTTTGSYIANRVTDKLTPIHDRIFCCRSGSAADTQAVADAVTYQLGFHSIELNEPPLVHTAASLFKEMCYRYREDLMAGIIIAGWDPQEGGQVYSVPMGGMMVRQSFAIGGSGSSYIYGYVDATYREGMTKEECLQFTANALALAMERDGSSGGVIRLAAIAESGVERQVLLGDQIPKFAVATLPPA
In words: Inhibition of human 20S […] beta1 subunit using Ac-nLPnLD-AMC as substrate preincubated for 2 hrs followed by substrate addition and measured after 1 hr by fluorescence intensity assay.

Data set [6] concerns the target 5-hydroxytryptamine receptor 2A (Homo sapiens) (UniProt P28223). In words: Displacement of [125I](+/-)DOI from human recombinant 5HT2A receptor at 10 uM incubated for 60 mins by radiometric scintillation counting analysis.
Data set [7] concerns 20S immunoproteasome beta-5i subunit. The data set can be described thus: Selectivity ratio of IC50 for cytotoxicity against human HepG2 cells to IC50 for inhibition of 20S immunoproteasome beta-5i subunit in human PBMC. It counts as toxicity, cell-based. Conditions: read-out: Ratio IC50.
The test system of data set [8] is U-266. In words: Antitumor activity against human U266B1 cells xenografted in H2d Rag2 mouse assessed as reduction in tumor volume at 0.3 mg/kg, po administered once daily and measured for 21 days. As to conditions: time 21.0 day. It counts as functional, organism-based.
Data set [9] is described as follows: Volume of distribution at steady state in iv dosed mouse. It counts as ADME, organism-based. As to conditions: in vivo, read-out: Vdss.

5-hydroxytryptamine receptor 2A (Homo sapiens), sequence (P28223 whole entry): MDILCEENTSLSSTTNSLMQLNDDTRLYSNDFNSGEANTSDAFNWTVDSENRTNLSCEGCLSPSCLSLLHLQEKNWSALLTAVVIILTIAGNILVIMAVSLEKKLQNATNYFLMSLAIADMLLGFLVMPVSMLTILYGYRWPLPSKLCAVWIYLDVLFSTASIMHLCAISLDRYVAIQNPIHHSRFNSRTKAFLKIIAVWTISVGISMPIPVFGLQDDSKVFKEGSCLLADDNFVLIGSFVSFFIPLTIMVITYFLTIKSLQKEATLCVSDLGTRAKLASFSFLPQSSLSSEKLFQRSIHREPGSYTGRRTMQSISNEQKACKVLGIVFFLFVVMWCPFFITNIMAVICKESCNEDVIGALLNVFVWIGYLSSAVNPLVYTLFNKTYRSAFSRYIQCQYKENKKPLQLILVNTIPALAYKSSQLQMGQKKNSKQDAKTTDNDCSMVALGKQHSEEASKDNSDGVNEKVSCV

For the compound `O=C(N[C@@H](Cc1coc2ccccc12)B(O)O)[C@@H]1C[C@H]2CC[C@@H]1O2`, the Ratio IC50 in the data set listed under Homo sapiens is 305. Also, the solubility kinetic in [1] is above 200 µM. Besides, the clearance in data set [2] was 3.17 mL/min/kg. The inhibition entry (in the data set on U-266 [3]; in the data set with U-266 [4]; in [6]) was “Active” throughout. The IC50 in data set [5] is above 30 µM. Also, in data set [7], the selectivity ratio was determined as 10000. In the data set on U-266 [8], the outcome was Active. For the same compound, the Vd in [9] was 0.47 L/kg.
